Data: paper PMC8067314, “Uptake of Vitamins D2, D3, D4, D5, D6, and D7 Solubilized in Mixed Micelles by Human Intestinal Cells, Caco-2, an Enhancing Effect of Lysophosphatidylcholine on the Cellular Uptake, and Estimation of Vitamins D’ Biological Activities” (Nutrients, 2021)
Read-outs that look alike come from different tables or passages of the source. One block for each molecule: values may come before it.

Key:
rats = conditions: cited from earlier work
dispersed Caco-2 cells = experiment: Uptake of vitamin D from mixed micelles by dispersed Caco-2 cells; format: in vitro ADME, human; conditions: NoPC mixed micelles, 2 h, cells dispersed with trypsin; compared among vitamins D2–D7
From the text: Since 2001, we have reported that lysophospholipids enhance the uptake of micellar carotenoids in Caco-2 cells. […] In the present study, using the same method, we examined whether the mechanism for the enhancing effect of lysophosphatidylcholine could be adapted to vitamin D, as well. To evaluate the impact of the degree of cell-cell adhesion/cell-matrix adhesion on vitamin D uptake by cells, we prepared in two different ways: i) dispersed Caco-2 cells without cell-cell adhesion/cell-matrix adhesion and ii) Caco-2 cells with insufficient cell-cell adhesion.
(i): The dispersed cells were prepared by trypsin treatment. After collecting the cells in the culture medium, the number of cells was counted and diluted with the medium. The cells were washed two times with FBS-free DMEM and then seeded in culture plate of 24-well for suspension cultures (SC plate; Greiner Bio-One, Frickenhausen, Germany) at a density of 15 × 10^4 cells per well containing the FBS-free DMEM (0.5 mL).
Subsequent operations are common to the two models of cells. The medium consisting of mixed micellar vitamin D (0.5 mL) was added to adhered cells or dispersed cells in individual wells containing FBS-free DMEM (0.5 mL), resulting in a total medium volume of 1.0 mL/well, and the final start concentrations of mixed micellar components were one-half the initial concentration. The cells were incubated in the same conditions as described above, i.e., in a CO2 incubator at 37 °C for 2 h, and then the cells were washed with 2 mM taurocholate/PBS, followed by two times with PBS. The vitamin D uptake and residual mixed micellar vitamin D were evaluated as the previous subsection, but the filtrate of residual mixed micellar vitamin D was diluted with a 2x-volume of H2O. The cellular protein content was also determined as above.

[1] = test system: differentiated Caco-2 cells; experiment: Uptake of vitamin D solubilized in mixed micelles by differentiated Caco-2 cells; format: in vitro ADME, human; conditions: vitamin D 1 μM, 2 h, compared among vitamins D2–D7
Protocol: Caco-2 cells were purchased from the American Type Culture Collection (Rockville, MD, USA). DMEM containing 10% FBS, 4 mM L-glutamine, penicillin and streptomycin (40 units/mL and 40 μg/mL, respectively), and nonessential amino acids (0.1 mM) were used as the culture medium. The cells were grown in the culture medium at 37 °C in a humidified atmosphere of 5% CO2 in air and then were cultured by passaging two times per week. We used differentiated Caco-2 cells, which have been widely used as a human intestinal model, for vitamin D uptake experiments. To induce differentiation of Caco-2 cells, the cells were seeded in culture plate of 24-well at a density of 5 × 10^4 cells per well containing 0.5 mL of the culture medium. Then, the medium was changed with fresh medium two times per week for 20–22 d. We have previously reported that the cell monolayers obtained by this method had sufficient cell-cell adhesion.
The mixed micelles were prepared as described in our previous reports. All of the components, i.e., taurocholate, monoolein, oleic acid, lysophosphatidylcholine, and vitamin D, were dissolved in an appropriate solvent. Portions of these solvent solutions were moved to glass tubes. The solvent was dried up with argon gas and further centrifugal evaporator. The dry matter was dispersed into FBS-free DMEM (same as the culture medium described above but without FBS). To remove any vitamin D not solubilized in the micelles, the resulting solution was passed through a filter (the pore size was 0.2-μm). The materials of mixed micelle and their concentrations were taurocholate (2 mM), monoolein (100 μM), oleic acid (33 μM), lysophosphatidylcholine (0 or 50 μM), and vitamin D (1 μM), respectively, unless otherwise stated. The concentrations were same as those used in our previous study. […] One part of the mixed micelles was diluted with four parts of methylene chloride/methyl alcohol (1:4, v/v), and then a portion (30 μL) was analyzed by high-pressure liquid chromatography (HPLC) as explained in the “2.8. […]

SMILES: C=C1CC[C@H](O)C/C1=C/C=C1\CCC[C@]2(C)[C@@H]([C@H](C)CCCC(C)C)CC[C@@H]12 [Vitamin D3]
Anti-rickets activity, comparison of vitamins D (rats; line test, vitamins D provided as a crystal): highest activities and were similar

Vitamin D uptake by dispersed Caco-2 cells (dispersed Caco-2 cells): higher than those of vitamins D2 and D3
SMILES: C=C1CCC(O)C/C1=C/C=C1\CCCC2(C)C1CCC2C(C)CC[C@H](C)C(C)C (stereo partly shown) [Vitamin D4]
Anti-rickets activity as percentage of that of vitamin D2 (rats; line test, crystal): 50–75%

SMILES: C=C1CCC(O)C/C1=C/C=C1\CCCC2(C)C1CCC2C(C)CCC(CC)C(C)C (stereo not shown) [Vitamin D5]
Vitamin D uptake by dispersed Caco-2 cells (dispersed Caco-2 cells): no tendency toward decreased vitamin-D5 uptake
Anti-rickets activity relative to that of vitamin D2 (rats; UV-irradiated precursors, not crystals): 1/70
Anti-rickets activity relative to that of vitamins D2 and D3 as UV irradiation precursors (rats; UV-irradiated precursors): 1/40
Anti-rickets activity relative to that of vitamin D3 (rats; line test, crystal): 1/180
Vitamin D uptake by differentiated Caco-2 cells ([1]; NoPC mixed micelles (without lysophosphatidylcholine)): lower by vitamin D5 than by other vitamins D
Vitamin D uptake by differentiated Caco-2 cells ([1]; lysoPC mixed micelles (lysophosphatidylcholine 50 μM)): tended to be lower than that of other vitamins D

Vitamin D uptake by dispersed Caco-2 cells (dispersed Caco-2 cells): higher than those of vitamins D2 and D3
SMILES: C=C1CCC(O)C/C1=C/C=C1\CCCC2(C)C1CCC2C(C)/C=C/C(CC)C(C)C (stereo not shown) [Vitamin D6]
Anti-rickets activity (rats; UV-irradiated precursors): little or no activity

Vitamin D uptake by dispersed Caco-2 cells (dispersed Caco-2 cells): higher than those of vitamins D2 and D3
SMILES: C=C1CCC(O)C/C1=C/C=C1\CCCC2(C)C1CCC2C(C)CC[C@@H](C)C(C)C (stereo partly shown) [Vitamin D7]
Anti-rickets activity relative to that of vitamin D2 (rats; UV-irradiated precursors): 1/10
